Laboratory results taken from PubChem BioAssay AID248 (DTP/NCI, 2004).
Where “and” joins values, the source holds several entries; their conditions need not be identical. Equal values may be shown once. Toxic doses and inconclusive results are not listed. Cut-off read from the data, not from the text of the source: active = T/C of 150% or more; inactive = T/C below 125%.

Tested on: L1210 leukemia ip in BDF1 mice, survival T/C
Assay: NCI In Vivo Anticancer Drug Screen. Data for tumor model L1210 Leukemia (intraperitoneal) in B6D2F1 (BDF1) mice
Conditions: endpoint: mean survival time, higher = longer survival
Outline: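 Mice bearing the transplanted tumor received compound or vehicle. Survival of the treated group was divided by that of the vehicle-treated control group to give the ratio.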

[1] = dose: 100.0 mg/kg/injection, schedule: Q04DX002 (ip), vehicle: Klucel (hydroxypropylcellulose) (HPC)
[2] = dose: 200.0 mg/kg/injection, schedule: Q04DX002 (ip), vehicle: Klucel (hydroxypropylcellulose) (HPC)
[3] = dose: 400.0 mg/kg/injection, schedule: Q04DX002 (ip), vehicle: Klucel (hydroxypropylcellulose) (HPC)
[4] = dose: 25.0 mg/kg/injection, schedule: Q04DX003 (ip), vehicle: saline with Tween-80
[5] = dose: 100.0 mg/kg/injection, schedule: Q04DX003 (ip), vehicle: saline with Tween-80
[6] = dose: 50.0 mg/kg/injection, schedule: Q01DX001 (ip), vehicle: carboxymethylcellulose (CMC)
[7] = dose: 100.0 mg/kg/injection, schedule: Q01DX001 (ip), vehicle: carboxymethylcellulose (CMC)
[8] = dose: 200.0 mg/kg/injection, schedule: Q01DX001 (ip), vehicle: carboxymethylcellulose (CMC)
[9] = dose: 400.0 mg/kg/injection, schedule: Q01DX001 (ip), vehicle: carboxymethylcellulose (CMC)
[10] = dose: 100.0 mg/kg/injection, schedule: Q04DX003 (ip), vehicle: saline
[11] = dose: 100.0 mg/kg/injection, schedule: Q04DX003 (ip), vehicle: Klucel (hydroxypropylcellulose) (HPC)
[12] = dose: 200.0 mg/kg/injection, schedule: Q04DX003 (ip), vehicle: Klucel (hydroxypropylcellulose) (HPC)
[13] = dose: 400.0 mg/kg/injection, schedule: Q04DX003 (ip), vehicle: Klucel (hydroxypropylcellulose) (HPC)
[14] = dose: 200.0 mg/kg/injection, schedule: Q04DX003 (ip), vehicle: saline with Tween-80
[15] = dose: 400.0 mg/kg/injection, schedule: Q04DX003 (ip), vehicle: saline with Tween-80
[16] = dose: 50.0 mg/kg/injection, schedule: Q01DX009 (ip), vehicle: Klucel (hydroxypropylcellulose) (HPC)
[17] = dose: 100.0 mg/kg/injection, schedule: Q01DX009 (ip), vehicle: Klucel (hydroxypropylcellulose) (HPC)
[18] = dose: 200.0 mg/kg/injection, schedule: Q01DX009 (ip), vehicle: Klucel (hydroxypropylcellulose) (HPC)
[19] = dose: 100.0 mg/kg/injection, schedule: Q01DX001 (ip), vehicle: saline
[20] = dose: 25.0 mg/kg/injection, schedule: Q01DX009 (ip), vehicle: Klucel (hydroxypropylcellulose) (HPC)
[21] = dose: 400.0 mg/kg/injection, schedule: Q01DX009 (ip), vehicle: Klucel (hydroxypropylcellulose) (HPC)

Measured: T/C

Cc1cccc(C)c1OC(=O)Nc1ccccc1
inactive: [1] 101 % of control | [2] 97 % of control | [3] 101 % of control

C#C/C(CCC)=N\Nc1ccc([N+](=O)[O-])cc1[N+](=O)[O-]
inactive: dose: 50.0 mg/kg/injection, schedule: Q04DX002 (ip), vehicle: saline with Tween-80 88 % of control | dose: 100.0 mg/kg/injection, schedule: Q04DX002 (ip), vehicle: saline with Tween-80 94 % of control | dose: 200.0 mg/kg/injection, schedule: Q04DX002 (ip), vehicle: saline with Tween-80 88 % of control

COc1ccc(C(=O)C=C(C(F)(F)F)C(F)(F)F)cc1
inactive: [4] 93 % of control | dose: 50.0 mg/kg/injection, schedule: Q04DX003 (ip), vehicle: saline with Tween-80 102 % of control | [5] 100 % of control and 102 % of control

COc1ccc(/C=N\NC(=O)CNC(=O)Nc2cccc(Cl)c2)cc1O
inactive: dose: 50.0 mg/kg/injection, schedule: Q01DX009 (ip), vehicle: saline with Tween-80 95 % of control | dose: 100.0 mg/kg/injection, schedule: Q01DX009 (ip), vehicle: saline with Tween-80 92 % of control | dose: 200.0 mg/kg/injection, schedule: Q01DX009 (ip), vehicle: saline with Tween-80 92 % of control

Cc1ccc(NC2=C(Cl)C(=O)C(Nc3ccc(C)cc3)=C(Cl)C2=O)cc1
inactive: [6] 97 % of control | [7] 95 % of control | [8] 90 % of control | [9] 92 % of control

COc1ccc2c(c1)CCNC2CCO (stereo not drawn)
inactive: [10] 103 % of control

CSc1ccc(/C=N/NC(N)=S)c(SC)n1
inactive: [11] 98 % of control | [12] 98 % of control | [13] 96 % of control

Nc1ccc2c(c1)C(=O)c1cc(N)c(Br)cc1-2
inactive: [7] 93 % of control | [8] 95 % of control | [9] 98 % of control

O=c1cc[nH]c(=O)o1
inactive: dose: 63.0 mg/kg/injection, schedule: Q01DX009 (ip), vehicle: water 89 % of control

Sc1ccc(Cl)cc1.[Pb]
inactive: dose: 25.0 mg/kg/injection, schedule: Q01DX009 (ip), vehicle: gum acacia 94 % of control | dose: 25.0 mg/kg/injection, schedule: Q04DX002 (ip), vehicle: gum acacia 99 % of control | dose: 50.0 mg/kg/injection, schedule: Q01DX009 (ip), vehicle: gum acacia 94 % of control | dose: 50.0 mg/kg/injection, schedule: Q04DX002 (ip), vehicle: gum acacia 99 % of control | dose: 100.0 mg/kg/injection, schedule: Q04DX002 (ip), vehicle: gum acacia 96 % of control and 91 % of control | dose: 200.0 mg/kg/injection, schedule: Q04DX002 (ip), vehicle: gum acacia 102 % of control | dose: 400.0 mg/kg/injection, schedule: Q04DX002 (ip), vehicle: gum acacia 109 % of control

CCN(CC)CCCC(C)Nc1cc(N)c2ncc(-c3ccc(Cl)cc3)nc2n1 (stereo not drawn)
inactive: dose: 75.0 mg/kg/injection, schedule: Q01DX001 (ip), vehicle: saline 96 % of control | dose: 150.0 mg/kg/injection, schedule: Q01DX001 (ip), vehicle: saline 102 % of control

O=C1CCC(N2C(=O)C3CC=CCC3C2=O)C(=O)N1 (stereo not drawn)
inactive: [10] 104 % of control and 109 % of control | dose: 200.0 mg/kg/injection, schedule: Q04DX003 (ip), vehicle: saline 104 % of control and 106 % of control | dose: 400.0 mg/kg/injection, schedule: Q04DX003 (ip), vehicle: saline 97 % of control and 112 % of control

O=C1CC(c2ccccn2)=NN1c1ccccc1
inactive: [5] 98 % of control | [14] 94 % of control | [15] 91 % of control

CC(=O)OC1CCCCC1NC(=O)NCCCl (stereo not drawn)
inactive: dose: 12.5 mg/kg/injection, schedule: Q04DX002 (ip), vehicle: Klucel (hydroxypropylcellulose) (HPC) 87 % of control | dose: 25.0 mg/kg/injection, schedule: Q04DX002 (ip), vehicle: Klucel (hydroxypropylcellulose) (HPC) 93 % of control | dose: 50.0 mg/kg/injection, schedule: Q04DX002 (ip), vehicle: Klucel (hydroxypropylcellulose) (HPC) 101 % of control | [1] 91 % of control | [2] 103 % of control | [3] 106 % of control and 95 % of control

c1ccc(CC(Cc2ccccc2)NC2=NCCO2)cc1
inactive: dose: 6.25 mg/kg/injection, schedule: Q01DX009 (ip), vehicle: saline with Tween-80 106 % of control | dose: 6.25 mg/kg/injection, schedule: Q04DX003 (ip), vehicle: saline with Tween-80 107 % of control | dose: 12.5 mg/kg/injection, schedule: Q01DX009 (ip), vehicle: saline with Tween-80 94 % of control | dose: 12.5 mg/kg/injection, schedule: Q04DX003 (ip), vehicle: saline with Tween-80 106 % of control | dose: 25.0 mg/kg/injection, schedule: Q01DX009 (ip), vehicle: saline with Tween-80 89 % of control | [4] 102 % of control

CCCCOC(=O)C1CCCCC1C(=O)OCCCC (stereo not drawn)
inactive: [16] 102 % of control | [17] 102 % of control | [18] 90 % of control

CCOC(=O)c1ccc(S(=O)(=O)N(CC)CC)cc1
inactive: [6] 89 % of control | [7] 96 % of control | [8] 91 % of control | [9] 102 % of control

c1ccc2cc(NCNc3ccc4ccccc4c3)ccc2c1
inactive: [19] 100 % of control | dose: 200.0 mg/kg/injection, schedule: Q01DX001 (ip), vehicle: saline 95 % of control | dose: 400.0 mg/kg/injection, schedule: Q01DX001 (ip), vehicle: saline 100 % of control

C=CCc1c[nH]c(=O)[nH]c1=O.[Hg]
inactive: dose: 12.5 mg/kg/injection, schedule: Q01DX009 (ip), vehicle: Klucel (hydroxypropylcellulose) (HPC) 93 % of control | [20] 98 % of control | dose: 25.0 mg/kg/injection, schedule: Q04DX003 (ip), vehicle: Klucel (hydroxypropylcellulose) (HPC) 92 % of control | dose: 50.0 mg/kg/injection, schedule: Q04DX003 (ip), vehicle: Klucel (hydroxypropylcellulose) (HPC) 89 % of control | [11] 97 % of control

CC/C(=C/c1ccccc1)C(N)=O
inactive: dose: 100.0 mg/kg/injection, schedule: Q01DX001 (ip), vehicle: steriod suspending solution 87 % of control | dose: 200.0 mg/kg/injection, schedule: Q01DX001 (ip), vehicle: steriod suspending solution 103 % of control

Cc1ccc([N+](=O)[O-])cc1NC(=O)N1CCCCC1C (stereo not drawn)
inactive: dose: 100.0 mg/kg/injection, schedule: Q01DX001 (ip), vehicle: Klucel (hydroxypropylcellulose) (HPC) 97 % of control | [17] 106 % of control and 90 % of control | [1] 97 % of control and 102 % of control | [11] 100 % of control | dose: 200.0 mg/kg/injection, schedule: Q01DX001 (ip), vehicle: Klucel (hydroxypropylcellulose) (HPC) 111 % of control | [18] 92 % of control and 97 % of control | [2] 97 % of control and 104 % of control | [12] 88 % of control | dose: 400.0 mg/kg/injection, schedule: Q01DX001 (ip), vehicle: Klucel (hydroxypropylcellulose) (HPC) 101 % of control | [21] 108 % of control and 87 % of control | [3] 93 % of control and 102 % of control | [13] 104 % of control

Cc1cccc(NC(=O)CCl)c1
inactive: [20] 94 % of control | [16] 87 % of control | [17] 103 % of control and 92 % of control | [11] 103 % of control | [12] 96 % of control and 86 % of control | [13] 99 % of control

CC(=O)Nc1ccc(-c2ccc(C)cc2)cc1
inactive: [5] 104 % of control | [14] 106 % of control | [15] 95 % of control

COC(=O)/C=C\C[P+](c1ccccc1)(c1ccccc1)c1ccccc1
inactive: dose: 12.5 mg/kg/injection, schedule: Q04DX003 (ip), vehicle: saline 103 % of control | dose: 25.0 mg/kg/injection, schedule: Q04DX003 (ip), vehicle: saline 97 % of control | dose: 50.0 mg/kg/injection, schedule: Q04DX003 (ip), vehicle: saline 100 % of control | [19] 101 % of control

O=C(O)c1ccc(C(=O)/C=N/O)nc1
inactive: [17] 90 % of control | [18] 93 % of control | [21] 97 % of control

O=c1[nH]cnc2c1nc([Se])n2C1OC(CO)C(O)C1O (stereo not drawn)
inactive: dose: 100.0 mg/kg/injection, schedule: Q01DX005 (ip), vehicle: saline 102 % of control | dose: 200.0 mg/kg/injection, schedule: Q01DX005 (ip), vehicle: saline 107 % of control
